Experimental data from patent publication US20100119479A1, “THERAPEUTIC ANTIVIRAL PEPTIDES” (INTERMUNE, INC., priority 2008, published 2010).

Assays:
[1] = target: T1, full-length NS3/NS4A-2 (HCV NS3 protease) (Hepatitis C virus genotype 1b, UniProt Q9WMX2); assay: NS3 Inhibition Assay (NS3-NS4 protease assay, RETS1 substrate); format: biochemical; conditions: NS3/NS4A-2 protease
T1 construct: Recombinant E. coli or Baculovirus full-length NS3; host or cells: E. coli or baculovirus (BV) expression
Summary of the method: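 Full-length NS3 (E. coli 2 nM or baculovirus 3 nM) precomplexed with excess NS4A-2, preincubated 10 min at room temperature with compound (top 50 μM). Then 2 μM RETS1 FRET substrate added, fluorescence (ex 335/em 495 nm) read kinetically for 30 min. IC50 by 4-parameter fit, converted to Ki using Km 2.03 μM (E. coli) or 1.74 μM (BV).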

[2] = system: HCV sub-genomic replicon, GS4.3 (HuH-7 hepatoma cells); assay: Quantitation by ELISA of NPTII in the HCV sub-genomic replicon, GS4.3; format: cell-based; conditions: Hepatitis C virus, GS4.3 replicon cells, 72 h incubation
Summary of the method: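 HuH-7 cells carrying the 1377/NS3-3′ subgenomic replicon were seeded 24 h ahead, then treated in G418-free medium with 3-fold dilutions from 10 μM (1% DMSO, duplicates) for 72 h at 37 °C, 5% CO2. NPTII in lysates was measured by ELISA (TMB, 450 nm). EC50 came from a 4-parameter fit of percent DMSO-control signal.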

T1 sequence (Q9WMX2 1027-1657): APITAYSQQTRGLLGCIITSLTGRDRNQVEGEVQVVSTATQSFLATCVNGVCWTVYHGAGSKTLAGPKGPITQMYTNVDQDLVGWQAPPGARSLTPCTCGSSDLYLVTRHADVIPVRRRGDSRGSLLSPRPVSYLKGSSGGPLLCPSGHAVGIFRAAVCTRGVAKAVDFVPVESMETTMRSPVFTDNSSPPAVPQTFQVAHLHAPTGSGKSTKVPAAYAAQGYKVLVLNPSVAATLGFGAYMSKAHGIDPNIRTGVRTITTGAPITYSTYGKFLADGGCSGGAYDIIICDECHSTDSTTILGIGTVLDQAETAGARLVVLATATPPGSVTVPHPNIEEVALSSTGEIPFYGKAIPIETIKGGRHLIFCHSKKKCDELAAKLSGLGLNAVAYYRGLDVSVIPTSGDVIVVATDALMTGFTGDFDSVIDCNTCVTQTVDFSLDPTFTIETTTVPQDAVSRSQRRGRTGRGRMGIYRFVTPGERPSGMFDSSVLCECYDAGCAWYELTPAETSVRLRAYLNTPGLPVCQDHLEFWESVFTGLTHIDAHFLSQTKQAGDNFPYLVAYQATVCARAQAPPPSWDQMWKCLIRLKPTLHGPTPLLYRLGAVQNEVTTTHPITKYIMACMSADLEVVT
T1 sequence (Q9WMX2 1658-1711): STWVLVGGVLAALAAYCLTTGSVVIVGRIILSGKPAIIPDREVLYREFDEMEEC

CC[C@@H]1C[C@]1(NC(=O)[C@@H]1C[C@@H](Oc2cc(-c3nc(C(C)C)cs3)nc3c(C)c(OC)ccc23)CN1C(=O)[C@@H](Nc1ccc(F)c(C(F)(F)F)c1)C(C)(C)C)C(=O)NS(=O)(=O)C1CC1 [Compound 308] gave an IC50 [1] of less than 100 nM and an EC50 [2] of less than 100 nM.
In the case of CC[C@@H]1C[C@]1(NC(=O)[C@@H]1C[C@@H](Oc2cc(-c3nc(C(C)C)cs3)nc3c(C)c(OC)ccc23)CN1C(=O)[C@@H](Nc1ccc(F)c(C(F)(F)F)c1)C(C)(C)C)C(=O)NS(=O)(=O)N(C)C [Compound 309], the IC50 [1] is reported as less than 100 nM and the EC50 [2] is reported as less than 100 nM.
CC(C)(C)[C@H](Nc1ccc(F)c(C(F)(F)F)c1)C(=O)N1C[C@H](OC(=O)N2Cc3cccc(Cl)c3C2)C[C@H]1C(=O)N[C@]1(C(=O)NS(=O)(=O)C2(C)CC2)C[C@H]1C1CC1 [Compound 310] gave an IC50 [1] of less than 100 nM and an EC50 [2] of less than 100 nM.
CC[C@@H]1C[C@]1(NC(=O)[C@@H]1C[C@@H](OC(=O)N2Cc3ccc(NCCN4CCOCC4)cc3C2)CN1C(=O)[C@@H](Nc1cc(F)cc(C(F)(F)F)c1)C(C)(C)C)C(=O)NS(=O)(=O)C1(C)CC1 [Compound 314] showed an IC50 [1] of less than 100 nM and an EC50 [2] of less than 100 nM.
In the case of C=C[C@@H]1C[C@]1(NC(=O)[C@@H]1C[C@@H](Oc2cc(-c3nc(C(C)C)cs3)nc3c(C)c(OC)ccc23)CN1C(=O)[C@@H](Nc1cc(F)cc(C(F)(F)F)c1)C(C)(C)C)C(=O)NS(=O)(=O)C1(C)CC1 [Compound 334], the IC50 [1] is reported as less than 100 nM and the EC50 [2] is reported as less than 100 nM.
Work on CC[C@@H]1C[C@]1(NC(=O)[C@@H]1CC(Oc2cc(-c3nc(C(C)C)cs3)nc3c(C)c(OC)ccc23)CN1C(=O)[C@@H](Nc1cccc(C(F)(F)F)c1)C(C)(C)C)C(=O)NS(=O)(=O)C1CC1 (some centres unmarked) [Compound 335] yielded an IC50 [1] of less than 100 nM and an EC50 [2] of less than 100 nM.
CC[C@@H]1C[C@]1(NC(=O)[C@@H]1CC(Oc2cc(-c3nc(C(C)C)cs3)nc3c(C)c(OC)ccc23)CN1C(=O)[C@@H](Nc1cccc(C(F)(F)F)c1)C(C)(C)C)C(=O)NS(=O)(=O)C1(C)CC1 (some centres unmarked) [Compound 336] was tested, and the IC50 [1] was less than 100 nM and the EC50 [2] was less than 100 nM.
In the case of CC[C@@H]1C[C@]1(NC(=O)[C@@H]1C[C@@H](Oc2cc(-c3nc(C(C)C)cs3)nc3c(C)c(OC)ccc23)CN1C(=O)[C@@H](Nc1ccccc1[N+](=O)[O-])C(C)(C)C)C(=O)NS(=O)(=O)C1CC1 [Compound 350], the IC50 [1] is reported as greater than 1000 nM and the EC50 [2] is reported as less than 100 nM.
With C=C[C@@H]1C[C@]1(NC(=O)[C@@H]1C[C@@H](Oc2cc(-c3nc(C(C)C)cs3)nc3c(C)c(OC)ccc23)CN1C(=O)[C@@H](Nc1ccccc1[N+](=O)[O-])C(C)(C)C)C(=O)NS(=O)(=O)C1CC1 [Compound 351] the IC50 [1] was 100 to 1000 nM and the EC50 [2] was less than 100 nM.
CC[C@@H]1C[C@]1(NC(=O)[C@@H]1C[C@@H](Oc2cc(-c3nc(C(C)C)cs3)nc3c(C)c(OC)ccc23)CN1C(=O)[C@@H](Nc1ccccc1)C(C)(C)C)C(=O)NS(=O)(=O)C1CC1 [Compound 352] gave an IC50 [1] of less than 100 nM and an EC50 [2] of less than 100 nM.
In the case of C=C[C@@H]1C[C@]1(NC(=O)[C@@H]1C[C@@H](Oc2cc(-c3nc(C(C)C)cs3)nc3c(C)c(OC)ccc23)CN1C(=O)[C@@H](Nc1ccccc1)C(C)(C)C)C(=O)NS(=O)(=O)C1CC1 [Compound 353], the IC50 [1] is reported as less than 100 nM and the EC50 [2] is reported as less than 100 nM.
Molecule CC[C@@H]1C[C@]1(NC(=O)[C@@H]1C[C@@H](Oc2cc(-c3nc(C(C)C)cs3)nc3c(C)c(OC)ccc23)CN1C(=O)[C@@H](Nc1cc(F)cc(C(F)(F)F)c1)C(C)(C)C)C(=O)NS(=O)(=O)C1CC1 [Compound 354] has an IC50 [1] of less than 100 nM and an EC50 [2] of less than 100 nM.
C=C[C@@H]1C[C@]1(NC(=O)[C@@H]1C[C@@H](Oc2cc(-c3nc(C(C)C)cs3)nc3c(C)c(OC)ccc23)CN1C(=O)[C@@H](Nc1ccc(F)c(C(F)(F)F)c1)C(C)(C)C)C(=O)NS(=O)(=O)N(C)C [Compound 400] was tested, and the IC50 [1] was less than 100 nM and the EC50 [2] was less than 100 nM.
C=C[C@@H]1C[C@]1(NC(=O)[C@@H]1C[C@@H](Oc2cc(-c3nc(C(C)C)cs3)nc3c(C)c(OC)ccc23)CN1C(=O)[C@@H](Nc1cc(C)cc(C(F)(F)F)c1)C(C)(C)C)C(=O)NS(=O)(=O)C1(C)CC1 [Compound 402] gave an IC50 [1] of less than 100 nM and an EC50 [2] of less than 100 nM.
Work on C=C[C@@H]1C[C@]1(NC(=O)[C@@H]1C[C@@H](Oc2cc(-c3nc(C(C)C)cs3)nc3c(C)c(OC)ccc23)CN1C(=O)[C@@H](Nc1cc(Cl)cc(C(F)(F)F)c1)C(C)(C)C)C(=O)NS(=O)(=O)C1(C)CC1 [Compound 403] yielded an IC50 [1] of less than 100 nM and an EC50 [2] of less than 100 nM.
Molecule C=C[C@@H]1C[C@]1(NC(=O)[C@@H]1C[C@@H](Oc2cc(-c3nc(C(C)C)cs3)nc3c(C)c(OC)ccc23)CN1C(=O)[C@@H](Nc1cc(F)cc(OC(F)(F)F)c1)C(C)(C)C)C(=O)NS(=O)(=O)C1(C)CC1 [Compound 404] has an IC50 [1] of less than 100 nM and an EC50 [2] of less than 100 nM.
